The test system of one test is MPK38. Kind of test: Immunoblot analysis of MPK38 stability and ubiquitination in adipocytes treated with DHT or E2. The format is cell-based, mouse. Conditions: for stability of MPK38: adipocytes of 4.5-month-old male and female mice, 10 nM, 24 hours, then cycloheximide 20 μg/ml; for endogenous ubiquitination of MPK38: adipocytes, regardless of gender. Here is the method:
In order to determine whether or not sex hormones such as testosterone and estrogen affect the kinase activity and expression of MPK38, immunoblot analysis was performed on adipocytes derived from 4.5-month-old normal male and female mice treated with DHT and E2.
A general note: Immunoblotting shows a protein as a band on a membrane.

The test system of the next test is MPK38-Trx complex. Kind of test: Endogenous MPK38-Trx complex formation in adipocytes. The format is cell-based, mouse. Conditions: both females and males. Here is the method:
(§1) In order to further determine whether or not testosterone increases the stability of MPK38, the effect of DHT on the formation of a complex of MPK38 with either ZPR9 or Trx was analyzed. The reason for this is that ZPR9 or Trx acts as a stabilizer or destabilizer of MPK38.

In another test the test system is ASK1/TGF-β/p53 signaling. Kind of test: MPK38-dependent ASK1/TGF-β/p53 signaling in adipocytes treated with DHT or E2. The format is cell-based, mouse. Conditions: vs control group not treated with DHT or E2; H2O2, TGF-β1 or 5FU stimulation.
The subject of another test is mouse hepatocytes. Kind of test: Effects of DHT and E2 on lipid metabolism and MPK38 kinase activity in hepatocytes. To be noted: 10 nM each, compared with adipocytes. The format is cell-based.
The test system of another test is MPK38-Mdm2 complex. Kind of test: Endogenous MPK38-Mdm2 complex formation (immunoprecipitation/immunoblot) in adipocytes. The format is cell-based, mouse. To be noted: vs control group not treated with DHT or E2. The procedure:
Furthermore, since MPK38 physically interacts with Mdm2, whether or not DHT and E2 are involved in the decomposition of MPK38 mediated by Mdm2 was determined.

The next test concerns MPK38-ZPR9 complex. Kind of test: Endogenous MPK38-ZPR9 complex formation in adipocytes. The format is cell-based, mouse. Conditions: both females and males. Here is the method:
as §1

The test system of test [1] is castrated MPK38−/− male mice. Kind of test: Testosterone replacement in castrated male mice. The format is in vivo, mouse. The procedure: A mixture of ketamine (34 mg/kg), xylazine (6.8 mg/kg) and acepromazine (1.1 mg/kg) was dissolved in saline, and the mice were anesthetized using this solution, and then surgery was performed. The surgical site was shaved and washed, and then sterilized with 70% alcohol. For castration, after abdomen midline incision, castration was performed such that the testes and attached fat pads were left intact. The testes were removed through an incision, but the testicular ducts and blood vessels supplying the testes were ligated with sterile silk suture and the testicular fat pads were put back, followed by closure with sterile silk suture. For sham castration, the testes with attached fat pads were exposed and put back without organ extirpation after abdominal incision, and the incision was closed with sterile silk suture. For ovariectomy, after midline abdominal incision, the uterus, oviducts, and ovaries with the fat pads were left intact. The ovaries were removed through an incision, but the oviduct and blood vessels supplying the ovaries were ligated with sterile silk suture and the ovarian fat pads were put back, followed by closure with sterile silk suture. […] After surgery, mice were monitored until they are fully recovered from anesthesia. […]

Where a SMILES comes first, the peptide text is derived from it. The star is where a group is joined. Cbz = O=C(OCc1ccccc1)*

In the case of `C[C@]12CCC(=O)C[C@@H]1CC[C@@H]1[C@@H]2CC[C@]2(C)[C@@H](O)CC[C@@H]12` [DHT], in the test with MPK38, the “stability of MPK38” value is recorded as “increased” and the “endogenous ubiquitination of MPK38” value is on record as “decreased”. Besides, in the test on MPK38-Trx complex, the “formation of MPK38-Trx complex” value was “decreased”. The ASK1/TGF-β/p53 signaling entry in the test with ASK1/TGF-β/p53 signaling is given as “increased”. Moreover, the “effects on lipid metabolism and MPK38 kinase activity in liver cells” value with mouse hepatocytes was “similar”. In the test with MPK38-Mdm2 complex, the “formation of endogenous MPK38-Mdm2 complex” value is “decreased”. For the same compound, the “formation of endogenous MPK38-ZPR9 complex” value in the test on MPK38-ZPR9 complex is given as “increased”.
Regarding `C[C@]12CC[C@@H]3c4ccc(O)cc4CC[C@H]3[C@@H]1CC[C@@H]2O` [E2], in the test with MPK38, the “stability of MPK38” value is “decreased” and the “endogenous ubiquitination of MPK38” value is recorded as “increased”. For the same compound, the “formation of MPK38-Trx complex” value with MPK38-Trx complex is “results opposite those of treatment with DHT”. The ASK1/TGF-β/p53 signaling entry in the test on ASK1/TGF-β/p53 signaling is given as “decreased”. Besides, the “effects on lipid metabolism and MPK38 kinase activity in liver cells” value in the test with mouse hepatocytes is given as “similar”. The “formation of endogenous MPK38-Mdm2 complex” value with MPK38-Mdm2 complex was “increased”. The “formation of endogenous MPK38-ZPR9 complex” value in the test on MPK38-ZPR9 complex was “results opposite those of treatment with DHT”.
Consider `CC(C)C[C@@H](C=O)NC(=O)[C@H](CC(C)C)NC(=O)[C@H](CC(C)C)NC(=O)OCc1ccccc1` [MG132] (Cbz-Leu-Leu-Leu-aldehyde), for which, in the test on MPK38 (10 μM MG132, treated vs untreated group), the “stability of MPK38 on exposure to proteasome inhibitor” value is “increase”.
Take `C[C@]12CC[C@H]3[C@@H](CCC4=CC(=O)CC[C@@]43C)[C@@H]1CC[C@@H]2O` [testosterone]: in test [1] (castrated male mice, T replacement (FIG. 14)), the “effects of castration on metabolism after testosterone replacement” value is “effects opposite to all of these results”. The “glucose or lipid metabolism” value in test [1] (middle-aged (7 months old) MPK38−/− male mice, testosterone pellets 25 μg/day) is “did not affect”.

Source of the values: patent US20240100131A1, “NOVEL USE OF MPK38/MELK AS THERAPEUTIC AGENT FOR OBESITY OR METABOLIC DISEASES SPECIFIC TO MIDDLE-AGED MEN” (priority 2021, published 2024).
